The values below come from US7709566B2, “Polytetrafluoroethylene aqueous dispersion and its product” (Asahi Glass Company, Limited, priority 2005, dated 2010).

The subject of one series is small animal. The conditions noted are these: it has been pointed out; cited from earlier work.
Series [1] is described as follows: Measurement of 1-octanol/water partition coefficient (LogPOW) by HPLC, OECD Test Guideline 117. It is filed as physicochemical. The conditions noted are these: for LogPOW: 1-octanol/water, HPLC, OECD Test Guideline 117, column temperature 40° C.; for bioaccumulation potential: judged from the LogPOW value, compared to APFO. As to the method:
In accordance with OECD Test Guideline 117, 1-octanol/water partition coefficient (LogPOW) of a fluorinated emulsifier was measured by using HPLC (high performance liquid chromatography).
Conditions for the measurement were as follows: column: TOSOH ODS-120T column (φ 4.6 mm×250 mm), eluent: acetonitrile/0.6 mass % of HClO4 solution=1/1 (vol/vol %), flow rate: […], sample amount: 300 μL, column temperature: 40° C., and detection light: UV 210 nm (WO2005-42593).
HPLC was carried out on standard substances (heptanoic acid, octanoic acid, nonanoic acid and decanoic acid) having known 1-octanol/water partition coefficients, and a calibration curve was prepared from the respective elution times and octanol/water partition coefficients of the respective standard substances. Based on this calibration curve, a value of partition coefficient (LogPOW) between 1-octanol and water was calculated from the elution time by HPLC of the fluorinated emulsifier.
Further, in general, in order to judge whether or not a chemical substance is apt to be accumulated in a living organism, a testing method for measurement of a partition coefficient (LogPOW) between 1-octanol and water, is stipulated. As the testing method, in addition to “Partition Coefficient (1-octanol/water) Shake Flask Method” as stipulated in OECD test guideline 107 and in Japanese Industrial Standards Z 7260-107 (2000), a HPLC method (high-performance liquid chromatography) as stipulated and published in OECD Test Guideline 117, is used. A compound having a large partition coefficient value has a large tendency for bioaccumulation, and a compound having a small value means a small tendency for bioaccumulation. In a case where the LogPOW value is less than 3.5, it is considered proper to judge that it is not a high-concentration, and bioaccumulation is also considered to be small.

Take `N.O=C(O)C(F)(F)C(F)(F)C(F)(F)C(F)(F)C(F)(F)C(F)(F)C(F)(F)F` [CF3(CF2)6COONH4, ammonium perfluorooctanoate]: in the series with small animal, the “accumulation potential in a body of a small animal” value was “has an accumulation potential”. The same molecule gave a LogPOW in series [1] of 3.67.

In the case of `N.O=C(O)C(F)(OC(F)(F)C(F)(OC(F)(F)C(F)(F)F)C(F)(F)F)C(F)(F)F` (stereo not drawn) [CF3CF2OCF(CF3)CF2OCF(CF3)COONH4], in series [1], the LogPOW worked out at 4.03; the bioaccumulation potential result was “high and higher bioaccumulation potential than APFO”.

On to CF3CF2OCF2CF2OCF2COONH4, for which, in series [1], the LogPOW came out at 3.13 and the bioaccumulation potential entry is “low”.
